For test [1], the system named is histone H3 acetylation, p21. In words: immunoblot for acetyl-H3 and p21 in Ras^V12 MEFs treated with HDACi. The test is classed as cell-based, mouse. The note with it: 1 μM PXD101 for 16 hrs; not prevented by PRAME or RARα expression. Here is the method: Ras^V12 MEFs were also transduced with PRAME or RARα retrovirus and treated with 1 μM PXD101 for 16 hrs. Extracts were immunoblotted for acetyl-H3, p21, PRAME, RARα and CDK4 (control). […] Cells were lysed in Ripa buffer (50 mM Tris pH 8.0, 150 mM NaCl, 1% NP-40, 0.5% deoxycholic acid, and 0.1% SDS) supplemented with protease inhibitors (Complete; Roche) and […] PMSF and proteins were separated on 10-14% SDS-PAGE gels. Proteins were transferred to polyvinylidine difluoride membranes (Immobilon P, Millipore) and Western blots were probed with the indicated antibodies. For TAP (co-)immunoprecipitations cells were lysed in ELB buffer (0.25 M NaCl, 0.1% NP-40, 50 mM HEPES pH 7.3) supplemented with protease inhibitors and PMSF. Lysates were incubated with IgG-coated sepharose beads (Amersham) to immunoprecipitate TAP and TAP-PRAME (Rigaut et al 1999), indicated as anti-TAP, or with protein A beads and normal mouse serum (mock IP) for 2 hrs, washed, and separated on SDS-PAGE gels.

Another test relates to RAS^V12-MEFs. In words: growth of RAS^V12-MEFs in the presence of HDAC inhibitor. The test is classed as cell-based, mouse. The protocol:
In order to address the molecular basis for the selective growth-inhibitory activity of HDACi on cancer cells, we performed a functional genetic screen to identify genes that confer resistance to a small-molecule HDACi, named PXD101 (Plumb et al, 2003). Oncogenic RAS^V12-transformed mouse embryonic fibroblasts (RAS^V12-MEFs) were infected with a high complexity retroviral cDNA expression library derived from human K562 erythroleukemia cells and exposed to 1 μM PXD101 for three to […]. HDACi-resistant colonies appeared at low frequency only after infection with cDNA expression library. Integrated proviruses were mobilized from PXD101-resistant colonies by Moloney virus super-infection as described (Jacobs et al, 2000). After second round selection, cDNA inserts were recovered by PCR and identified by DNA sequence analysis. Using this approach, we identified full-length cDNAs encoding the human melanoma tumour antigen PRAME (PReferentially expressed Antigen in MElanoma (Ikeda et al, 1997) and Retinoic Acid Receptor alpha (RARα) as cDNAs that allow continuous proliferation in the presence of 1 μM PXD101. PRAME also rescues these cells from growth arrest by a related HDACi, Trichostatin A at a concentration of 0.1 μM.
The observed effect of PRAME on RAR signalling could result from a physical interaction of PRAME with RAR or from more indirect effects. […]

In another test the test system is RARβ. In words: immunoblot for endogenous RARβ in F9 cells treated with RA. Format: cell-based, mouse. The note with it: 10^−7 M RA; parental and mock-transfected F9 cells, not PRAME-transfected. The protocol: (§1) Cells were lysed in Ripa buffer (50 mM Tris pH 8.0, 150 mM NaCl, 1% NP-40, 0.5% deoxycholic acid, and 0.1% SDS) supplemented with protease inhibitors (Complete; Roche) and […] PMSF and proteins were separated on 10-14% SDS-PAGE gels. Proteins were transferred to polyvinylidine difluoride membranes (Immobilon P, Millipore) and Western blots were probed with the indicated antibodies. For TAP (co-)immunoprecipitations cells were lysed in ELB buffer (0.25 M NaCl, 0.1% NP-40, 50 mM HEPES pH 7.3) supplemented with protease inhibitors and PMSF. Lysates were incubated with IgG-coated sepharose beads (Amersham) to immunoprecipitate TAP and TAP-PRAME (Rigaut et al 1999), indicated as anti-TAP, or with protein A beads and normal mouse serum (mock IP) for 2 hrs, washed, and separated on SDS-PAGE gels.

For the next test, the system named is RARβ and p21. In words: immunoblot of RA target genes RARβ and p21 in A375-PRAME^KD cells. As to conditions: 5 μM RA. Format: cell-based, human. Here is the method: as §1
Another test deals with A375-PRAME^KD cells. Briefly: proliferation of A375-PRAME^KD cells, 3T3 protocol. The test is classed as cell-based, human. The note with it: 15 days, medium with 5 μM RA. Here is the method: (§2) To assess the effect of PRAME knockdown on cell proliferation, we generated stable derivatives of A375 melanoma having shRNA-mediated knockdown of PRAME expression (A375-PRAME^KD). These A375-PRAME^KD cells were cultured for 15 days according to the 3T3 protocol.
(§3) F9 cells were stably transfected with PRAME or empty vector and resistant cells were differentiated in 10^−7 M RA for 5 days. A375 cells were stably transfected with pRS-PRAME or empty vector and stable clones were cultured according to the 3T3 protocol. Medium with RA was refreshed every 24-48 hrs.

Another test concerns p21 promoter. In words: p21 promoter-luciferase reporter in B16 melanoma cells. The test is classed as cell-based, mouse. The note with it: B16 melanoma cells treated with RA; suppressed by PRAME. The protocol:
as §2
Transfections were carried out using the Lipofectamine reagent (Invitrogen), except for Ras^V12 MEFs and Phoenix cells, which were transfected using calcium phosphate precipitation. RA-based reporter assays were done in DMEM with charcoal-stripped FCS (Hyclone). In reporter assays 0.5 μg of reporter-luciferase, 1 ng CMV-renilla, and 3 μg of the indicated DNA were transfected. RA, PXD101, or TSA was added 24 hrs after transfection and assays were performed 48 hrs after transfection. In knock-down experiments, RA or PXD101 was added 72 hrs after transfection and assays were performed 96 hrs after transfection. Luciferase activities shown represent ratios between luciferase and renilla internal control values.

The next test has as its system A375-PRAMEKD cells. In words: human melanoma xenograft model, A375-PRAMEKD tumours. As to conditions: 5 mg/kg RA p.o. daily, nude mice, PRAMEKD melanomas, vs vehicle. Format: in vivo, mouse. The protocol:
To examine the role of PRAME in RA-responsiveness in vivo, we used a human melanoma xenograft model. Nude mice were subcutaneously transplanted with parental A375 into one flank and A375-PRAMEKD cells in the opposite flank and the mice were treated p.o. daily with either 5 mg/kg RA or vehicle only, while tumor volumes were measured weekly.
Female 5-6 week old athymic BALB-C nude mice (nu/nu) were s.c. implanted with 1×10^6 cells bilaterally into the axial regions. Each mouse received A375-PRAMEKD cells in its right flank and control A375 cells in its left flank. Mice were randomized into treatment groups and treated with 5 mg/kg RA or vehicle (ethanol in sunflower oil) p.o. with a 20-gauge intragastric feeding tube daily. Tumor diameter was measured with calipers weekly. The pRS vector which was used to generate A375-PRAMEKD cells is a self-inactivating retroviral vector, to prevent re-activation and spreading of virus (Brummelkamp et al., 2002a; Brummelkamp et al., 2002b). The experiment was performed twice, with n=20 and n=10 mice and results were similar in both experiments.

Test [2] has as its system F9 mouse embryo carcinoma cells. In words: RA-induced apoptosis in F9 cells (cleaved caspase 3). The note with it: 10^−7 M RA; vector controls, not PRAME transfectants. The test is classed as cell-based.
Source text: RA induces proliferation arrest, differentiation and apoptosis in many cell types. We therefore asked if PRAME expression affected the RA-induced differentiation of F9 mouse embryo carcinoma cells towards parietal endoderm (Strickland and Mandavi, 1978). F9 cells were stably transfected with PRAME or control vector and individual colonies were selected. In the to absence of RA, the morphology of all transfected cells was the some as that of parental F9 cells. However, F9 cells stably transfected with PRAME […] and treated with 10^−7 M RA were resistant to RA-induced morphological differentiation and growth arrest. Apart from differentiating, a fraction of F9 cells treated with RA dies by apoptosis (Atencia et al, 1994). […] We conclude that PRAME expression confers resistance to RA-induced proliferation arrest, differentiation and apoptosis.
as §3

Molecules are shown by their SMILES.

For the compound `O=C(/C=C/c1cccc(S(=O)(=O)Nc2ccccc2)c1)NO` [PXD101, N-hydroxy-3-(3-phenylsulfamoyl-phenyl)-acrylamide], in test [1], the “histone H3 acetylation” value was “increase” and the p21 expression result is recorded as “induction”. Besides, in the test on RAS^V12-MEFs (1 μM PXD101), the cell growth result is recorded as “growth arrest”.

As to `CC(/C=C/C(=O)NO)=C\[C@@H](C)C(=O)c1ccc(N(C)C)cc1` [Trichostatin A], the cell growth entry in the test with RAS^V12-MEFs (Trichostatin A 0.1 μM) is reported as “growth arrest”.

On to `CC1=C(/C=C/C(C)=C/C=C/C(C)=C/C(=O)O)C(C)(C)CCC1` [RA, All-trans-retinoic acid], for which, in the test on RARβ, the “endogenous RARβ protein expression” value is reported as “induced”. Moreover, the “induction of RA target genes RARβ and p21” value with RARβ and p21 was “enhanced”. In addition, the proliferation rates entry with A375-PRAME^KD cells is reported as “significantly decreased proliferation rates, especially when cultured in the presence of RA”. In addition, the “p21 promoter-luciferase reporter activity” value in the test on p21 promoter is on record as “activated”. Further, the tumor growth result in the test with A375-PRAMEKD cells is “severely retarded”. Further, the “cleaved caspase 3 (apoptosis)” value in test [2] is listed as “apparent in vector controls”.

The record behind these values is patent US8969544B2, “Combined use of PRAME inhibitors and HDAC inhibitors” (priority 2004, dated 2015).
